The source of these data is ChEMBL document CHEMBL1201862, “PubChem BioAssay data set” (2004).

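Results reflect a 48-hour exposure of cells in 96-well plates to compound at five concentrations. GI50: concentration for 50% inhibition of growth.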 Active and inactive are the calls of the source. Rule as the data show it: active = GI50 up to about 1.1 µM and inactive = higher.

Test systems include SN12C; NCI-H522; SK-OV-3; TK-10; 786-0; NCI-H226; K562; OVCAR-4; NCI-H460; SF-295; U-251; A498; BT-549; MCF7; CAKI-1; SF-268; LOX IMVI; Hs-578T; ACHN; NCI/ADR-RES.
Holding throughout (assay): inhibition of tumour cell growth, NCI panel, 48 h

Turning to `C=C1CC2(OC1=O)c1ccccc1CCc1ccccc12`, the GI50 in the assay with SN12C is 2.52 µM (inactive); with NCI-H522, 1.71 µM (inactive); in the assay with SK-OV-3, 17.7 µM (inactive); in the assay on TK-10, 2.84 µM (inactive); with 786-0 it was 1.75 µM (inactive); in the assay with NCI-H226, 13.2 µM (inactive). In addition, the GI50 was 1.71 µM (inactive) with K562; 1.93 µM (inactive) in the assay on OVCAR-4; 12.5 µM (inactive) with NCI-H460; 16.1 µM (inactive) in the assay with SF-295; 9.12 µM (inactive) with U-251; 25.8 µM (inactive) with A498. Also, the GI50 in the assay with BT-549 is 1.58 µM (inactive); in the assay with MCF7, 4.59 µM (inactive); with CAKI-1 it was 1.75 µM (inactive); with SF-268, 1.93 µM (inactive); in the assay on LOX IMVI it was 1.46 µM (inactive); with Hs-578T, 1.94 µM (inactive). For the same molecule, the GI50 in the assay on ACHN is 1.71 µM (inactive); with NCI/ADR-RES, 1.63 µM (inactive).

As to `CC[C@H](C)c1occ2c(O)c(C(=O)O)c(=O)cc-2c1C`, the GI50 with SN12C was 22.5 µM (inactive); in the assay on NCI-H522, 14.7 µM (inactive); in the assay on SK-OV-3 it was 26.1 µM (inactive); with TK-10 it was 40.8 µM (inactive); in the assay on 786-0 it was 40.1 µM (inactive); with NCI-H226, 33.8 µM (inactive). Also, the GI50 was 29.1 µM (inactive) with K562; 24.8 µM (inactive) with OVCAR-4; 24.3 µM (inactive) in the assay on NCI-H460; 31.3 µM (inactive) in the assay on SF-295; 28.5 µM (inactive) in the assay on U-251; 29 µM (inactive) in the assay on A498. The GI50 in the assay on BT-549 was 25.9 µM (inactive); in the assay with MCF7, 29.2 µM (inactive); in the assay on CAKI-1 it was 37.8 µM (inactive); with SF-268, 33.7 µM (inactive); with LOX IMVI, 15.6 µM (inactive); in the assay with Hs-578T, 48.5 µM (inactive). Further, the values for the GI50 in the assay on ACHN and in the assay on NCI/ADR-RES were 26.7 µM (inactive) and 20.3 µM (inactive), respectively.

Turning to `O=C1N[C@H]2c3c(Cl)sc(Cl)c3C(=O)[C@H]2O1`, the GI50 in the assay on SN12C was 8.71 µM (inactive); in the assay with NCI-H522 it was 1.68 µM (inactive); in the assay with SK-OV-3, 23.1 µM (inactive); with TK-10 it was 64.1 µM (inactive); in the assay with 786-0 it was 20.2 µM (inactive); in the assay with NCI-H226 it was 17.9 µM (inactive). For the same molecule, the GI50 in the assay on K562 was 2.99 µM (inactive); in the assay with OVCAR-4, 21.9 µM (inactive); with NCI-H460, 8.89 µM (inactive); with SF-295 it was 18.8 µM (inactive); in the assay on U-251, 5.51 µM (inactive); in the assay on A498, 20.2 µM (inactive). Besides, the GI50 in the assay with BT-549 was 22.3 µM (inactive); with MCF7 it was 39.8 µM (inactive); in the assay on CAKI-1 it was 17.8 µM (inactive); in the assay with SF-268, 17 µM (inactive); in the assay with LOX IMVI, 3.61 µM (inactive); in the assay on Hs-578T, 17.9 µM (inactive). Also, the GI50 in the assay on ACHN was 13.4 µM (inactive); with NCI/ADR-RES, 15.5 µM (inactive).

Regarding `C[C@]12CC[C@H]3[C@@H](CC=C4C[C@@H](N5CCCC5)CC[C@@]43C)[C@@H]1C[C@H](N1CCCCC1)[C@@H]2O`, the GI50 was > 100 µM (inactive) in the assay with SN12C; > 100 µM (inactive) in the assay with NCI-H522; > 100 µM (inactive) with SK-OV-3; > 100 µM (inactive) in the assay on TK-10; 91.8 µM (inactive) with 786-0; > 100 µM (inactive) in the assay with NCI-H226. The GI50 in the assay on K562 is 16.9 µM (inactive); with OVCAR-4 it was > 100 µM (inactive); in the assay on NCI-H460 it was > 100 µM (inactive); in the assay on SF-295, > 100 µM (inactive); in the assay with U-251, > 100 µM (inactive); with A498, > 100 µM (inactive). In addition, the GI50 was > 100 µM (inactive) in the assay with BT-549; > 100 µM (inactive) in the assay with MCF7; > 100 µM (inactive) in the assay on CAKI-1; > 100 µM (inactive) in the assay with SF-268; 33.3 µM (inactive) in the assay on LOX IMVI; > 100 µM (inactive) in the assay with Hs-578T. Besides, the GI50 in the assay on ACHN and in the assay with NCI/ADR-RES was > 100 µM (inactive) each time.

Turning to `CCCc1nnc2sc(COc3cc(Cl)c(OCc4nn5c(CCC)nnc5s4)cc3Cl)nn12`, the GI50 in the assay with SN12C was 57 µM (inactive); in the assay with NCI-H522, 27.3 µM (inactive); with SK-OV-3, 24.5 µM (inactive); in the assay with TK-10, 52 µM (inactive); in the assay with 786-0, 35.7 µM (inactive); with NCI-H226 it was > 100 µM (inactive). The GI50 in the assay with K562 was 0.596 µM (active); with OVCAR-4, 22.5 µM (inactive); in the assay on NCI-H460, 42.8 µM (inactive); with SF-295 it was 28.6 µM (inactive); in the assay with U-251, 37.2 µM (inactive); with A498, 37.8 µM (inactive). For the same molecule, the GI50 in the assay with BT-549 is 29.2 µM (inactive); in the assay with MCF7, 23.6 µM (inactive); with CAKI-1, 38.5 µM (inactive); with SF-268 it was 21.7 µM (inactive); in the assay with LOX IMVI, 37.1 µM (inactive); in the assay on Hs-578T, 32 µM (inactive). In addition, the GI50 with ACHN is 25.4 µM (inactive); with NCI/ADR-RES, 5.9 µM (inactive).

Consider `CCCCCCCC(CC(=O)NC(CO)C(=O)NC(CO)CC(C)C)OC(=O)CC(CCCCCCC)OC(=O)CC(CCCCCCC)OC1OC(C)C(O)C(OC2OC(C)C(O)C(O)C2O)C1O` (stereo not given), for which the GI50 in the assay with SN12C was 14.5 µM (inactive); with NCI-H522 it was 13 µM (inactive); with SK-OV-3 it was 17.6 µM (inactive); with TK-10, 16.5 µM (inactive); with 786-0 it was 14.3 µM (inactive); in the assay on NCI-H226, 16.6 µM (inactive). The GI50 with K562 is 5.12 µM (inactive); with OVCAR-4, 12.6 µM (inactive); with NCI-H460, 6.73 µM (inactive); in the assay with SF-295 it was 14 µM (inactive); in the assay on U-251, 11.1 µM (inactive); in the assay on A498, 18.7 µM (inactive). Further, the GI50 with BT-549 is 14.5 µM (inactive); in the assay on MCF7, 0.614 µM (active); in the assay with CAKI-1, 18.4 µM (inactive); in the assay with SF-268, 8.41 µM (inactive); in the assay with LOX IMVI, 5.28 µM (inactive); with Hs-578T it was 8.45 µM (inactive). Besides, the GI50 in the assay on ACHN is 12.2 µM (inactive); with NCI/ADR-RES it was 17.9 µM (inactive).

For the molecule `c1cc(-c2sc(-c3ccncc3)c(-c3ccncc3)c2-c2ccncc2)ccn1`, the GI50 was 17.6 µM (inactive) with SN12C; 15.5 µM (inactive) with NCI-H522; 20.9 µM (inactive) in the assay on SK-OV-3; 15.2 µM (inactive) in the assay on TK-10; 14.1 µM (inactive) with 786-0; 14.6 µM (inactive) in the assay on NCI-H226. The GI50 in the assay with K562 was 28.2 µM (inactive); in the assay on OVCAR-4, 33 µM (inactive); in the assay on NCI-H460, 10.8 µM (inactive); in the assay on SF-295, 17.3 µM (inactive); in the assay on U-251 it was 14.1 µM (inactive); in the assay with A498, 12.5 µM (inactive). The GI50 was 18.7 µM (inactive) in the assay with BT-549; 19.4 µM (inactive) in the assay on MCF7; 36.9 µM (inactive) in the assay with CAKI-1; 15.2 µM (inactive) in the assay on SF-268; 13.6 µM (inactive) in the assay with LOX IMVI; 22.3 µM (inactive) in the assay on Hs-578T. Moreover, the GI50 is 14.8 µM (inactive) with ACHN and 22.9 µM (inactive) in the assay with NCI/ADR-RES.
